Six compounds from patent US12252524B2, “GIP/GLP1 co-agonist compounds” (Eli Lilly and Company, priority 2018, dated 2025) can be followed below.

Each structure is given as a SMILES string. Numbered stars: 1 amine (or outer) side, 2 acyl side, 3 side chain; on linkers, the order of the positions; unused ones are H or OH. Square brackets hold non-standard residues; d marks the D form. Side chains are listed from the residue outwards. Peptide text beside a SMILES is read from it. * marks the point of attachment. C20 diacid = O=C(O)CCCCCCCCCCCCCCCCCCC(=O)*; αMePhe(2-F) = C[C@](N)(Cc1ccccc1F)C(=O)O; γGlu = O=C(O)[C@H](CCC(=O)[*:2])N[*:1]; Desaminotyrosyl = O=C(CCc1ccc(O)cc1)*; αMeF = C[C@](N)(Cc1ccccc1)C(=O)O; αMeL = CC(C)C[C@](C)(N)C(=O)O; Orn = NCCC[C@H](N)C(=O)O; AEEA = NCCOCCOCC(=O)O; Aib = CC(C)(N)C(=O)O Bounds are passed on as bounds.

Assay [1] concerns the target T1, gastric inhibitory peptide receptor (GIPR) (Homo sapiens, UniProt P48546).
T1 sequence (P48546 22-466): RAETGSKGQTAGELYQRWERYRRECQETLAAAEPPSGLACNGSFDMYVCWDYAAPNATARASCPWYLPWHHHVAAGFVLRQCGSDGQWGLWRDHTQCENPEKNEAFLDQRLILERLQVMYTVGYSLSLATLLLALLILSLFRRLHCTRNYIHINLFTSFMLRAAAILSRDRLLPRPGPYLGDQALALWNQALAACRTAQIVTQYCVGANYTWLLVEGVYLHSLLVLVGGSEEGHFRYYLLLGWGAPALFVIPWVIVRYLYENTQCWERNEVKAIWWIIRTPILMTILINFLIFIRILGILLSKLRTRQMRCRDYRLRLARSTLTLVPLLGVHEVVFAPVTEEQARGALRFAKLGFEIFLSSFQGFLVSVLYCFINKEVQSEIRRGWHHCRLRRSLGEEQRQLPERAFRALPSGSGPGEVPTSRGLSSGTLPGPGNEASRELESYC
The assay can be described thus: cAMP pharmacological functional assay in presence of casein, hGIPR. Type of assay: cell-based. The conditions noted are these: HEK293 cells expressing hGIPR, 0.1% Casein, geometric mean; read-out: hGIPR cAMP Rel EC50 nM (SEM, n).

Assay [2] has as its target human GLP-1 receptor (GLP-1R) (Homo sapiens, UniProt P43220). The experiment in a line: cAMP pharmacological functional assay in presence of casein, hGLP-1R. It counts as cell-based. The conditions noted are these: HEK293 cells expressing hGLP-1R, 0.1% Casein, geometric mean; read-out: hGLP1R cAMP Rel EC50 nM (SEM, n).

Sequence of human GLP-1 receptor (GLP-1R) (P43220 24-463): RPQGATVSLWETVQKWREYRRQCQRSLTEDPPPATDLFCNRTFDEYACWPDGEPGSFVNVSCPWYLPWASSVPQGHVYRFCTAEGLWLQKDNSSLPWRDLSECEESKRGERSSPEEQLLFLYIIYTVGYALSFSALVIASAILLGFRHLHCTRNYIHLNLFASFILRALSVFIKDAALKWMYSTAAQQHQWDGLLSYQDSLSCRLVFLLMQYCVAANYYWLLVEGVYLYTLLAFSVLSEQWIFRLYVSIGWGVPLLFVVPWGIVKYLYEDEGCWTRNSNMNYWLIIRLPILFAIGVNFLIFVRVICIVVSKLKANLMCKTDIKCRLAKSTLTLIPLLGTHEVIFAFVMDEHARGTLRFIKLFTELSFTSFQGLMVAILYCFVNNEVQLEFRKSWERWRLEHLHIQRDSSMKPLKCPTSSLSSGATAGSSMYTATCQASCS

Take `CC[C@H](C)[C@H](NC(=O)[C@H](CC(C)C)NC(=O)[C@H](Cc1ccc(O)cc1)NC(=O)[C@H](CCC(=O)O)NC(=O)[C@@H](NC(=O)[C@H](Cc1ccccc1)NC(=O)[C@H](C)NC(=O)C(C)(C)NC(=O)[C@H](CCC(N)=O)NC(=O)[C@H](C)NC(=O)[C@H](CCCCNC(=O)COCCOCCNC(=O)COCCOCCNC(=O)CC[C@H](NC(=O)CCCCCCCCCCCCCCCCCCC(=O)O)C(=O)O)NC(=O)[C@H](CCCCN)NC(=O)[C@H](CC(=O)O)NC(=O)[C@H](CC(C)C)NC(=O)[C@H](CC(C)C)NC(=O)[C@@H](NC(=O)[C@H](CO)NC(=O)[C@](C)(Cc1ccccc1)NC(=O)[C@H](CC(=O)O)NC(=O)[C@H](CO)NC(=O)[C@@H](NC(=O)[C@](C)(Cc1ccccc1)NC(=O)[C@@H](NC(=O)CNC(=O)[C@H](CCC(=O)O)NC(=O)C(C)(C)NC(=O)[C@@H](N)Cc1ccc(O)cc1)[C@@H](C)O)[C@@H](C)O)[C@@H](C)CC)[C@@H](C)CC)C(=O)N[C@@H](CCC(=O)O)C(=O)NCC(=O)NCC(=O)N1CCC[C@H]1C(=O)N[C@@H](CO)C(=O)N[C@@H](CO)C(=O)NCC(=O)N[C@@H](C)C(=O)N1CCC[C@H]1C(=O)N1CCC[C@H]1C(=O)N1CCC[C@H]1C(=O)N[C@@H](CO)C(N)=O` [Example 131] (H-Y[Aib]EGT[αMeF]TSD[αMeF]SILLDKK([AEEA-AEEA-γGlu-C20 diacid])AQ[Aib]AFIEYLIEGGPSSGAPPPS-NH2): the EC50 in assay [1] stood at 0.183 nM; in assay [2], 0.156 nM.
For the compound `CC[C@H](C)[C@H](NC(=O)[C@H](CCCCN)NC(=O)[C@H](CC(=O)O)NC(=O)[C@H](CC(C)C)NC(=O)[C@H](CC(C)C)NC(=O)[C@@H](NC(=O)[C@H](CO)NC(=O)[C@H](Cc1ccc(O)cc1)NC(=O)[C@H](CC(=O)O)NC(=O)[C@H](CO)NC(=O)[C@@H](NC(=O)[C@H](Cc1ccccc1)NC(=O)[C@@H](NC(=O)CNC(=O)[C@H](CCC(=O)O)NC(=O)C(C)(C)NC(=O)[C@@H](N)Cc1ccc(O)cc1)[C@@H](C)O)[C@@H](C)O)[C@@H](C)CC)C(=O)N[C@@H](C)C(=O)N[C@@H](CCC(N)=O)C(=O)NC(C)(C)C(=O)N[C@@H](C)C(=O)N[C@@H](Cc1ccccc1)C(=O)N[C@H](C(=O)N[C@@H](CCC(=O)O)C(=O)N[C@@H](Cc1ccc(O)cc1)C(=O)N[C@@H](CC(C)C)C(=O)N[C@H](C(=O)N[C@@H](CCC(=O)O)C(=O)NCC(=O)NCC(=O)N1CCC[C@H]1C(=O)N[C@@H](CO)C(=O)N[C@@H](CO)C(=O)NCC(=O)N[C@@H](C)C(=O)N1CCC[C@H]1C(=O)N1CCC[C@H]1C(=O)N[C@@H](CCCCNC(=O)COCCOCCNC(=O)COCCOCCNC(=O)CC[C@H](NC(=O)CCCCCCCCCCCCCCCCCCC(=O)O)C(=O)O)C(=O)N[C@@H](CO)C(N)=O)[C@@H](C)CC)[C@@H](C)CC` [Example 47] (H-Y[Aib]EGTFTSDYSILLDKIAQ[Aib]AFIEYLIEGGPSSGAPPK([AEEA-AEEA-γGlu-C20 diacid])S-NH2), the results for the EC50 in assay [1] and in assay [2] were 0.287 nM and 0.702 nM, respectively.
The corresponding values for `CC[C@H](C)[C@H](NC(=O)[C@H](CCCCN)NC(=O)[C@H](CC(=O)O)NC(=O)[C@H](CCCCNC(=O)COCCOCCNC(=O)COCCOCCNC(=O)CC[C@H](NC(=O)CCCCCCCCCCCCCCCCCCC(=O)O)C(=O)O)NC(=O)[C@H](CC(C)C)NC(=O)[C@@H](NC(=O)[C@H](CO)NC(=O)[C@H](Cc1ccc(O)cc1)NC(=O)[C@H](CC(=O)O)NC(=O)[C@H](CO)NC(=O)[C@@H](NC(=O)[C@H](Cc1ccccc1)NC(=O)[C@@H](NC(=O)CNC(=O)[C@H](CCC(=O)O)NC(=O)C(C)(C)NC(=O)[C@@H](N)Cc1ccc(O)cc1)[C@@H](C)O)[C@@H](C)O)[C@@H](C)CC)C(=O)N[C@@H](C)C(=O)N[C@@H](CCC(N)=O)C(=O)NC(C)(C)C(=O)N[C@@H](C)C(=O)N[C@@H](Cc1ccccc1)C(=O)N[C@H](C(=O)N[C@@H](CCC(=O)O)C(=O)N[C@@H](Cc1ccc(O)cc1)C(=O)N[C@@H](CC(C)C)C(=O)N[C@H](C(=O)N[C@@H](CCC(=O)O)C(=O)NCC(=O)NCC(N)=O)[C@@H](C)CC)[C@@H](C)CC` [Example 71] (H-Y[Aib]EGTFTSDYSILK([AEEA-AEEA-γGlu-C20 diacid])DKIAQ[Aib]AFIEYLIEGG-NH2) are 0.166 nM and 1.02 nM.
On to `CC[C@H](C)[C@H](NC(=O)[C@H](CC(C)C)NC(=O)[C@H](Cc1ccc(O)cc1)NC(=O)[C@@H](CCC(=O)O)NC(=O)[C@@H](NC(=O)[C@H](Cc1ccccc1)NC(=O)[C@H](CCC(=O)O)NC(=O)C(C)(C)NC(=O)[C@H](CCC(N)=O)NC(=O)[C@H](C)NC(=O)[C@H](CCCCN)NC(=O)[C@H](CCCN)NC(=O)[C@H](CC(=O)O)NC(=O)[C@H](CC(C)C)NC(=O)[C@](C)(CC(C)C)NC(=O)[C@@H](NC(=O)[C@H](CO)NC(=O)[C@H](Cc1ccc(O)cc1)NC(=O)[C@H](CC(=O)O)NC(=O)[C@H](CO)NC(=O)[C@@H](NC(=O)[C@](C)(Cc1ccccc1F)NC(=O)[C@@H](NC(=O)CNC(=O)[C@H](CCC(=O)O)NC(=O)C(C)(C)NC(=O)[C@@H](N)Cc1ccc(O)cc1)[C@@H](C)O)[C@@H](C)O)[C@@H](C)CC)[C@@H](C)CC)C(=O)N[C@@H](CCC(=O)O)C(=O)NCC(=O)NCC(=O)N1CCC[C@H]1C(=O)N[C@@H](CO)C(=O)N[C@@H](CO)C(=O)NCC(=O)N[C@@H](C)C(=O)N1CCC[C@H]1C(=O)N1CCC[C@H]1C(=O)N1CCC[C@H]1C(=O)N[C@@H](CO)C(=O)N[C@@H](CS)C(N)=O` [Example 282] (H-Y[Aib]EGT[αMePhe(2-F)]TSDYSI[αMeL]LD[Orn]KAQ[Aib]EFI[dE]YLIEGGPSSGAPPPSC-NH2), for which the EC50 in assay [1] is 0.323 nM; in assay [2], 0.247 nM.
The corresponding values for `CC[C@H](C)[C@H](NC(=O)[C@H](CC(C)C)NC(=O)[C@H](Cc1ccc(O)cc1)NC(=O)[C@H](CCC(=O)O)NC(=O)[C@@H](NC(=O)[C@H](Cc1ccccc1)NC(=O)[C@H](C)NC(=O)[C@H](CCC(N)=O)NC(=O)[C@H](CCC(N)=O)NC(=O)[C@H](C)NC(=O)[C@H](CCCCNC(=O)COCCOCCNC(=O)COCCOCCNC(=O)CC[C@H](NC(=O)CCCCCCCCCCCCCCCCCCC(=O)O)C(=O)O)NC(=O)[C@H](CCC(=O)O)NC(=O)[C@H](CC(=O)O)NC(=O)[C@H](CC(C)C)NC(=O)[C@H](CC(C)C)NC(=O)[C@@H](NC(=O)[C@H](CO)NC(=O)[C@H](Cc1ccc(O)cc1)NC(=O)[C@H](CC(=O)O)NC(=O)[C@H](CO)NC(=O)[C@@H](NC(=O)[C@H](Cc1ccccc1)NC(=O)[C@@H](NC(=O)CNC(=O)[C@H](CCC(=O)O)NC(=O)C(C)(C)NC(=O)CCc1ccc(O)cc1)[C@@H](C)O)[C@@H](C)O)[C@@H](C)CC)[C@@H](C)CC)C(=O)N[C@@H](CCC(=O)O)C(=O)NCC(=O)NCC(=O)N1CCC[C@H]1C(=O)N[C@@H](CO)C(=O)N[C@@H](CO)C(=O)NCC(=O)N[C@@H](C)C(=O)N1CCC[C@H]1C(=O)N1CCC[C@H]1C(=O)N1CCC[C@H]1C(=O)N[C@@H](CO)C(N)=O` [Example 199] (Desaminotyrosyl-[Aib]EGTFTSDYSILLDEK([AEEA-AEEA-γGlu-C20 diacid])AQQAFIEYLIEGGPSSGAPPPS-NH2) are more than 30 nM and 0.0422 nM.
The corresponding values for `CC[C@H](C)[C@H](NC(=O)[C@H](CC(C)C)NC(=O)[C@H](Cc1ccc(O)cc1)NC(=O)[C@H](CCC(=O)O)NC(=O)[C@@H](NC(=O)[C@H](Cc1ccccc1)NC(=O)[C@H](C)NC(=O)C(C)(C)NC(=O)[C@H](CCC(N)=O)NC(=O)[C@H](C)NC(=O)[C@H](CCCCNC(=O)COCCOCCNC(=O)COCCOCCNC(=O)CC[C@H](NC(=O)CCCCCCCCCCCCCCCCCCC(=O)O)C(=O)O)NC(=O)[C@H](CCC(=O)O)NC(=O)[C@H](CC(=O)O)NC(=O)[C@H](CC(C)C)NC(=O)[C@H](CC(C)C)NC(=O)[C@@H](NC(=O)[C@H](CO)NC(=O)[C@H](Cc1ccc(O)cc1)NC(=O)[C@H](CC(=O)O)NC(=O)[C@H](CO)NC(=O)[C@@H](NC(=O)[C@H](Cc1ccccc1)NC(=O)[C@@H](NC(=O)CNC(=O)[C@H](CCC(=O)O)NC(=O)C(C)(C)NC(=O)[C@@H](N)Cc1ccc(O)cc1)[C@@H](C)O)[C@@H](C)O)[C@@H](C)CC)[C@@H](C)CC)C(=O)N[C@@H](CCC(=O)O)C(=O)NCC(=O)NCC(=O)N1CCC[C@H]1C(=O)N[C@@H](CO)C(=O)N[C@@H](CO)C(=O)NCC(=O)N[C@@H](C)C(=O)N1CCC[C@H]1C(=O)N1CCC[C@H]1C(=O)N1CCC[C@H]1C(=O)N[C@@H](CO)C(N)=O` [Example 259] (H-Y[Aib]EGTFTSDYSILLDEK([AEEA-AEEA-γGlu-C20 diacid])AQ[Aib]AFIEYLIEGGPSSGAPPPS-NH2; N-terminus assumed) are 0.257 nM and 0.145 nM.
